Source: patent US7396837B2, “Antitumoral analogs of lamellarins” (Pharma Mar, S.A.U., priority 2002, dated 2008)

Experiments:
Assay type in all cases: cell-based
IGROV-ET = experiment: SRB colorimetric cell growth inhibition assay, IGROV-ET (ET-743 resistant); conditions: Homo sapiens, IGROV-ET; for GI50: GI=growth inhibition, read-out: GI50 IGROV-ET; for CC50: cell killing (cytotoxic effect), read-out: LC50 IGROV-ET; for IC (TGI): total growth inhibition (cytostatic effect), read-out: TGI IGROV-ET
Source text: (§1) The finality of these assays is to interrupt the growth of an “in vitro” tumor cell culture by means a continued exhibition of the cells to the sample to be testing.
(§2) A colorimetric type of assay, using sulforhodamine B (SRB) reaction has been adapted for a quantitative measurement of cell growth and viability (following the technique described by P. A. Skehan, et al., J. Natl. Cancer Inst. 1990, 82, 1107-1112).
(§3) This form of assay employs 96 well cell culture microplates of 9 mm diameter (T. Mosmann et al., J. of Immunological Methods 1983, 65, 55-63; G. T. Faircloth et al., J. of Tissue and Culture Methods 1988, 11, 201-205).
(§4) Most of the cell lines are obtained from American Type Culture Collection (ATCC) derived from different human cancer types.
(§5) The values for mean +/− SD of data from triplicate wells are calculated. Some parameters for cellular responses can be calculated: GI=growth inhibition, TGI=total growth inhibition (cytostatic effect) and LC=cell killing (cytotoxic effect).

SK-MEL-28 = experiment: SRB colorimetric cell growth inhibition assay, SK-MEL-28; conditions: Homo sapiens, SK-MEL-28, MEL-28; for GI50: GI=growth inhibition, read-out: GI50 MEL-28; for CC50: cell killing (cytotoxic effect), read-out: LC50 MEL-28; for IC (TGI): total growth inhibition (cytostatic effect), read-out: TGI MEL-28
Source text: as §1, §2, §3, §4, §5

IGROV = experiment: SRB colorimetric cell growth inhibition assay, IGROV; conditions: Homo sapiens, IGROV; for GI50: GI=growth inhibition, read-out: GI50 IGROV; for CC50: cell killing (cytotoxic effect), read-out: LC50 IGROV; for IC (TGI): total growth inhibition (cytostatic effect), read-out: TGI IGROV
Source text: as §1, §2, §3, §4, §5

HT-29 = experiment: SRB colorimetric cell growth inhibition assay, HT-29; conditions: Homo sapiens, HT-29, HT-29; for GI50: GI=growth inhibition, read-out: GI50 HT-29; for CC50: cell killing (cytotoxic effect), read-out: LC50 HT-29; for IC (TGI): total growth inhibition (cytostatic effect), read-out: TGI HT-29
Source text: as §1, §2, §3, §4, §5

A-549 = experiment: SRB colorimetric cell growth inhibition assay, A-549; conditions: Homo sapiens, A549, A-549; for GI50: GI=growth inhibition, read-out: GI50 A-549; for CC50: cell killing (cytotoxic effect), read-out: LC50 A-549; for IC (TGI): total growth inhibition (cytostatic effect), read-out: TGI A-549
Source text: as §1, §2, §3, §4, §5

HeLa-APL = experiment: SRB colorimetric cell growth inhibition assay, HeLa-APL (aplidine resistant); conditions: Homo sapiens, HELA-APL; for GI50: GI=growth inhibition, read-out: GI50 HELA-APL; for CC50: cell killing (cytotoxic effect), read-out: LC50 HELA-APL; for IC (TGI): total growth inhibition (cytostatic effect), read-out: TGI HELA-APL
Source text: as §1, §2, §3, §4, §5

LoVo = experiment: SRB colorimetric cell growth inhibition assay, LoVo; conditions: Homo sapiens, LoVo; for GI50: GI=growth inhibition, read-out: GI50 LOVO; for CC50: cell killing (cytotoxic effect), read-out: LC50 LOVO; for IC (TGI): total growth inhibition (cytostatic effect), read-out: TGI LOVO
Source text: as §1, §2, §3, §4, §5

SK-BR-3 = experiment: SRB colorimetric cell growth inhibition assay, SK-BR-3; conditions: Homo sapiens, SK-BR-3, SK-BR-3; for GI50: GI=growth inhibition, read-out: GI50 SK-BR-3; for CC50: cell killing (cytotoxic effect), read-out: LC50 SK-BR-3; for IC (TGI): total growth inhibition (cytostatic effect), read-out: TGI SK-BR-3
Source text: as §1, §2, §3, §4, §5

HeLa = experiment: SRB colorimetric cell growth inhibition assay, HeLa; conditions: Homo sapiens, HeLa; for GI50: GI=growth inhibition, read-out: GI50 HELA; for CC50: cell killing (cytotoxic effect), read-out: LC50 HELA; for IC (TGI): total growth inhibition (cytostatic effect), read-out: TGI HELA
Source text: as §1, §2, §3, §4, §5

DU-145 = experiment: SRB colorimetric cell growth inhibition assay, DU-145; conditions: Homo sapiens, DU-145, DU-145; for GI50: GI=growth inhibition, read-out: GI50 DU-145; for CC50: cell killing (cytotoxic effect), read-out: LC50 DU-145; for IC (TGI): total growth inhibition (cytostatic effect), read-out: TGI DU-145
Source text: as §1, §2, §3, §4, §5

PANC-1 = experiment: SRB colorimetric cell growth inhibition assay, PANC-1; conditions: Homo sapiens, PANC-1, PANC-1; for GI50: GI=growth inhibition, read-out: GI50 PANC-1; for CC50: cell killing (cytotoxic effect), read-out: LC50 PANC-1; for IC (TGI): total growth inhibition (cytostatic effect), read-out: TGI PANC-1
Source text: as §1, §2, §3, §4, §5

LoVo-Dox = experiment: SRB colorimetric cell growth inhibition assay, LoVo-Dox (MDR); conditions: Homo sapiens, LOVO-DOX; for GI50: GI=growth inhibition, read-out: GI50 LOVO-DOX; for CC50: cell killing (cytotoxic effect), read-out: LC50 LOVO-DOX; for IC (TGI): total growth inhibition (cytostatic effect), read-out: TGI LOVO-DOX
Source text: as §1, §2, §3, §4, §5

Row | SMILES | GI50 (IGROV-ET) [µM] | CC50 (IGROV-ET) [µM] | IC (TGI) (IGROV-ET) [µM] | GI50 (SK-MEL-28) [µM] | CC50 (SK-MEL-28) [µM] | IC (TGI) (SK-MEL-28) [µM] | GI50 (IGROV) [µM] | CC50 (IGROV) [µM] | IC (TGI) (IGROV) [µM] | GI50 (HT-29) [µM] | CC50 (HT-29) [µM] | IC (TGI) (HT-29) [µM] | GI50 (A-549) [µM] | CC50 (A-549) [µM] | IC (TGI) (A-549) [µM] | GI50 (HeLa-APL) [µM] | CC50 (HeLa-APL) [µM] | IC (TGI) (HeLa-APL) [µM] | GI50 (LoVo) [µM] | CC50 (LoVo) [µM] | further results
1 | COc1cc(-c2c3c4cc(OC)c(OC(C)C)cc4oc(=O)c3n3ccc4c(OC(C)C)c(OC)c(OC)cc4c23)ccc1OC(C)C [Compound 27] | 10.4 | 15.2 | 15.2 | 4.47 | 15.2 | 9.35 | 1.15 | 15.2 | 5.06 | 0.144 | 15.2 | 2.17 | 5.49 | 15.2 | 15.2 | 13 | 15.2 | 15.2 | 0.27 | 15.2 | IC (TGI) (LoVo): 2.17 µM; GI50 (SK-BR-3): 0.881 µM; CC50 (SK-BR-3): 14.1 µM; IC (TGI) (SK-BR-3): 3.25 µM; GI50 (HeLa): 4.04 µM; CC50 (HeLa): 15.2 µM; IC (TGI) (HeLa): 9.47 µM; GI50 (DU-145): 0.976 µM; CC50 (DU-145): 12.6 µM; IC (TGI) (DU-145): 3.95 µM; GI50 (PANC-1): 4.41 µM; CC50 (PANC-1): 15.2 µM; IC (TGI) (PANC-1): 13 µM; GI50 (LoVo-Dox): 15.2 µM; CC50 (LoVo-Dox): 15.2 µM; IC (TGI) (LoVo-Dox): 15.2 µM
2 | CCCCCCCC(=O)Oc1ccc(-c2c3n(c4c(=O)oc5cc(OC(=O)CCCCCCC)c(OC)cc5c24)CCc2cc(OC(=O)CCCCCCC)c(OC)cc2-3)cc1OC [Compound 28] | 11.4 | 11.4 | 11.4 | 2.24 | 11.4 | 7.28 | 1.64 | 9.61 | 3.97 | 0.111 | 11.4 | 1.2 | 1.39 | 11.4 | 11.4 | 9.53 | 11.4 | 11.4 | 0.634 | 11.4 | IC (TGI) (LoVo): 5.16 µM; GI50 (SK-BR-3): 0.941 µM; CC50 (SK-BR-3): 11.4 µM; IC (TGI) (SK-BR-3): 4.73 µM; GI50 (HeLa): 2.76 µM; CC50 (HeLa): 11.4 µM; IC (TGI) (HeLa): 9.24 µM; GI50 (DU-145): 0.315 µM; CC50 (DU-145): 7.32 µM; IC (TGI) (DU-145): 1.47 µM; GI50 (PANC-1): 1.91 µM; CC50 (PANC-1): 11.4 µM; IC (TGI) (PANC-1): 11.4 µM; GI50 (LoVo-Dox): 11.4 µM; CC50 (LoVo-Dox): 11.4 µM; IC (TGI) (LoVo-Dox): 11.4 µM
